Results taken from US20250275539A1, “APYRASE INHIBITORS” (Texas Crop Science, Inc., priority 2024, published 2025).
Where two headings read alike, the source gives them in different places.

Assays:
apyrase = test: Apyrase inhibition assay (screen for apyrase inhibitors, phosphate release read at 630 nm); format: biochemical; conditions: inhibitor conc at 1 mM (10 μl added), 3 mM ATP, pH 6.5, room temperature 1 hr
Method: Apyrase inhibitors useful as enhancers of pesticidal activity are assessed using an in vitro assay. The method of Windsor, Bio Techniques 33:1024-1030 (November 2002) was used as follows
• 96 well plates were used for the assay: (Greiner bio-one: REF-655901-96 well, PS, F-bottom, Clear, Non-binding)
• Reaction Buffer: 60 mM Hepes; 3 mM MgCl2, 3 mM CaCl2) and 3 mM ATP (pH 6.5) • Development Buffer A: 2% aqueous ammonium molybdate • Development Buffer B: 11% ascorbic acid in 37.5% TCA in water • Stop buffer C: 2% trisodium citrate in 2% acetic acid solution in water
• Add 100 μl of reaction buffer to each well. • Add 10 μl of DMSO (control) or inhibitor/compound or compounds such as N1915 or orthovanadate to each well. (use inhibitor conc at 1 mM; orthovanadate at 2 mM and N1915 at 1 mM) • Add 10 μl of apyrase (concentration based on optimization—Dilute 1 U/μl enzyme to different concentrations such as 0.1 U, 0.05 U, 0.0025, 0.001 U, 0.0005 U—to find a good range) • Incubate plate at room temperature for 1 hr • Mix development buffer A and B in the ratio of 1:1.5 (just before use). • Add 50 μl of A: B mix in each well (incubate for 2 mins) • Add 50 μl of C in each well • Measure/Read Absorbance of plate @630 nm
Inhibitory data for the apyrase assay described above are provided for selected compounds in Table 3. D is inhibition of 0% to 10%, C is inhibition from 10% to 20%, B is inhibition from 20% to 30%, and A is inhibition above 30%. Blank entries signify compounds that were not tested.

[1] = system: Brown Rust (Puccinia recondita) on wheat; test: Greenhouse crop test: control of Brown Rust on wheat in combination with commercial fungicides; format: in vivo; conditions: wheat JB Diego, inoculated 24 hours after treatment, evaluated at fourteen days; for Amistar (% control of the disease, compound + fungicide): with Amistar 0.04 L/ha; for Balaya (% control of the disease, compound + fungicide): with Balaya 0.25 L/ha; for Imtrex (% control of the disease, compound + fungicide): with Imtrex 0.45 L/ha; for Proline (% control of the disease, compound + fungicide): with Proline 0.15 L/ha
Method: In this method, exemplary compounds were evaluated for their ability to control Brown Rust (Puccinia recondita) on wheat in a controlled greenhouse environment in combination with one of four fungicides, Amistar, Imtrex, Proline or Balaya. In these studies, wheat plants (JB Diego) were used. Seeds were sown in 9 cm diameter pots to a depth of 1 to 2 cm using Petersfield potting compost (75% medium grade peat, 12% screened sterilized loam, 3% medium grade vermiculite, 10% grit (5 mm screened, lime free), 1.5 kg PG mix per m3, lime to pH5.5-6.0 and wetting agent (Vitax Ultrawet 200 ml per m3) and germinated/grown at 23 C under a 16 h day/8 h night light regime. Plants were treated two to three weeks after sowing when they were at the BBCH 11 growth stage ([…]). Wheat plants were inoculated with Puccinia triticina (Brown rust) 24 hours after treatment. A track sprayer was used to treat the plants with the mixture of commercial fungicide and test compound using a water volume of 200 L/ha. Four replicates were used for each combination of fungicide, pathogen and test compound. Each plant was evaluated at fourteen days (once the disease symptoms were fully expressed) for % control of the disease. Appropriate controls were used for all experiments, including an ‘inoculation check’ wherein plants were inoculated with their specific pathogen to assess disease levels. Also, each commercial fungicide was tested on its own as a part of each treatment, this being benchmark against which the experimental compounds were evaluated. […] That is, the present compounds, although not fungicidal by themselves, enhance the activity of fungicides, thus the enhancer compounds work synergistically in combination with fungicides to control disease. • Amistar (0.04 L/ha) • Imtrex (0.45 L/ha) • Proline (0.15 L/ha) • Balaya (0.25 L/ha)

[2] = system: Amaranthus retroflexus (pigweed); test: Enhancement of herbicide activity: pre-emergence Amaranthus kill with metribuzin; format: in vivo; conditions: Amaranthus retroflexus
Method: Specifically, Amaranthus retroflexus (pigweed) was treated pre-emergence with metribuzin alone or in combination with an enhancer compound disclosed herein. Fifteen seeds of Amaranthus retroflexus were sown in soil in each pot and then sprayed with a mixture of metribuzin at the appropriate rate shown in Table 5 and the compound of this invention at 100 g/ha using a track sprayer at a water volume of 200 L/hectare. Small amounts of acetone were used to aid solubility. The pots were watered immediately after sowing and treatment and then allowed to stand in a glasshouse. Assessment of kill was made seven and fourteen days after treatment. The test included four replicates for each treatment and the control.

For Cc1cccc(NS(=O)(=O)c2ccc(C3CCCCC3)cc2)c1 [Compound A-64, 4-cyclohexyl-N-(m-tolyl)benzenesulfonamide], the Inhibition (apyrase) was “A (A is inhibition above 30%)”, the “Amistar (% control of the disease, compound + fungicide)” value [1] was 69.5% and the “Balaya (% control of the disease, compound + fungicide)” value [1] was −75.9%. The “Imtrex (% control of the disease, compound + fungicide)” value [1] was −15.4% and the “Proline (% control of the disease, compound + fungicide)” value [1] was 2.9%.

For CN(c1ccccc1)S(=O)(=O)c1ccc(-c2ccccc2)cc1 [Compound A-10, N-methyl-N-phenyl-[1,1′-biphenyl]-4-sulfonamide], the Inhibition (apyrase) was “A (A is inhibition above 30%)”, the “Amistar (% control of the disease, compound + fungicide)” value [1] was 87.4% and the “Balaya (% control of the disease, compound + fungicide)” value [1] was 56.5%. For the same compound, the “Imtrex (% control of the disease, compound + fungicide)” value [1] was 15.0% and the “Proline (% control of the disease, compound + fungicide)” value [1] was 4.2%.

O=S(=O)(Nc1cccc(Cl)c1N1CCOCC1)c1ccc(-c2ccccc2)cc1 [Compound A-116, N-(3-chloro-2-morpholinophenyl)-[1,1′-biphenyl]-4-sulfonamide] was tested, and the Inhibition (apyrase) was “A (A is inhibition above 30%)”, the “Amistar (% control of the disease, compound + fungicide)” value [1] was 68.0% and the “Balaya (% control of the disease, compound + fungicide)” value [1] was 24.2%. For the same compound, the “Imtrex (% control of the disease, compound + fungicide)” value [1] was 48.4% and the “Proline (% control of the disease, compound + fungicide)” value [1] was 14.6%.

In the case of CCCc1ccc(S(=O)(=O)Nc2ccc(CC(=O)O)cc2)cc1 [Compound A-46, 2-(4-((4-propylphenyl)sulfonamido)phenyl)acetic acid], the Inhibition (apyrase) is reported as “A (A is inhibition above 30%)”.

With CCCc1ccc(S(=O)(=O)Nc2ccc(-c3nc(C)cc(=O)[nH]3)cc2)cc1 [Compound A-120, N-(4-(4-methyl-6-oxo-1,6-dihydropyrimidin-2-yl)phenyl)-4-propylbenzenesulfonamide] the Inhibition (apyrase) was “B (B is inhibition from 20% to 30%)”.

For CCCc1ccc(S(=O)(=O)Nc2ccccc2Cn2cncn2)cc1 [Compound A-113, N-(2-((1H-1,2,4-triazol-1-yl)methyl)phenyl)-4-propylbenzenesulfonamide], the Inhibition (apyrase) was “D (D is inhibition of 0% to 10%)”.

With CCCc1ccc(S(=O)(=O)Nc2c(C(C)C)cccc2C(C)C)cc1 [Compound A-76, N-(2,6-diisopropylphenyl)-4-propylbenzenesulfonamide] the Inhibition (apyrase) was “C (C is inhibition from 10% to 20%)”.

For CCCc1ccc(S(=O)(=O)Nc2ccccc2C(=O)OC)cc1 [Compound A-53, methyl 2-((4-propylphenyl)sulfonamido) benzoate], the Inhibition (apyrase) was “C (C is inhibition from 10% to 20%)”.

CSc1nnc(C(C)(C)C)c(=O)n1N [None (metribuzin only), metribuzin, reference compound] was tested, and the pest or weed control at 100 g/ha ([2]; 168 h, read-out: Pre-Emergence Amaranthus Kill Percentage, Assessed 7 DAT, Metribuzin rate 50 g/ha) was 0%, the pest or weed control at 100 g/ha ([2]; 168 h, read-out: Pre-Emergence Amaranthus Kill Percentage, Assessed 7 DAT, Metribuzin rate 100 g/ha) was 15.2% and the pest or weed control at 100 g/ha ([2]; 168 h, read-out: Pre-Emergence Amaranthus Kill Percentage, Assessed 7 DAT, Metribuzin rate 200 g/ha) was 60.9%. The pest or weed control at 100 g/ha ([2]; 336 h, read-out: Pre-Emergence Amaranthus Kill Percentage, Assessed 14 DAT, Metribuzin rate 50 g/ha) was 7.7%, the pest or weed control at 100 g/ha ([2]; 336 h, read-out: Pre-Emergence Amaranthus Kill Percentage, Assessed 14 DAT, Metribuzin rate 100 g/ha) was 38.3% and the pest or weed control at 100 g/ha ([2]; 336 h, read-out: Pre-Emergence Amaranthus Kill Percentage, Assessed 14 DAT, Metribuzin rate 200 g/ha) was 74%.

COc1ccccc1Oc1ccc(S(=O)(=O)Nc2cccc(C)c2)cc1 [Compound A-100, 4-(2-methoxyphenoxy)-N-(m-tolyl)benzenesulfonamide] was tested, and the Inhibition (apyrase) was “D (D is inhibition of 0% to 10%)”.

For CCCc1ccc(S(=O)(=O)Nc2c(F)cccc2CO)cc1 [Compound A-16, N-(2-fluoro-6-(hydroxymethyl)phenyl)-4-propylbenzenesulfonamide], the Inhibition (apyrase) was “C (C is inhibition from 10% to 20%)”.

COC(=O)c1ccc(S(=O)(=O)Nc2cccc(C)c2)cc1 [Compound A-12, methyl 4-(N-(m-tolyl)sulfamoyl)benzoate] was tested, and the Inhibition (apyrase) was “C (C is inhibition from 10% to 20%)”.

For CCCc1ccc(S(=O)(=O)Nc2cc(OC)c(OC)cc2C(=O)O)cc1 [Compound A-45, 4,5-dimethoxy-2-((4-propylphenyl)sulfonamido) benzoic acid], the Inhibition (apyrase) was “C (C is inhibition from 10% to 20%)”.

With CCCc1ccc(S(=O)(=O)Nc2ccccc2NS(=O)(=O)c2ccc(F)cc2)cc1 [Compound A-94, 4-fluoro-N-(2-((4-propylphenyl)sulfonamido)phenyl)benzenesulfonamide] the Inhibition (apyrase) was “A (A is inhibition above 30%)”.

In the case of CCCc1ccc(S(=O)(=O)Nc2cc(C(=O)OC)ccc2S(N)(=O)=O)cc1 [Compound A-25, methyl 3-((4-propylphenyl)sulfonamido)-4-sulfamoylbenzoate], the Inhibition (apyrase) is reported as “D (D is inhibition of 0% to 10%)”.

In the case of CCCc1ccc(S(=O)(=O)Nc2ccccc2C(F)(F)F)cc1 [Compound A-73, 4-propyl-N-(2-(trifluoromethyl)phenyl) benzenesulfonamide], the Inhibition (apyrase) is reported as “D (D is inhibition of 0% to 10%)”.

Cc1cccc(NS(=O)(=O)c2ccc(C(=O)O)cc2)c1 [Compound A-65, 4-(N-(m-tolyl)sulfamoyl)benzoic acid] was tested, and the Inhibition (apyrase) was “B (B is inhibition from 20% to 30%)”.

In the case of CCCc1ccc(S(=O)(=O)Nc2ccc(-c3ccnc(C)n3)cc2)cc1 [Compound A-40, N-(4-(2-methylpyrimidin-4-yl)phenyl)-4-propylbenzenesulfonamide], the Inhibition (apyrase) is reported as “D (D is inhibition of 0% to 10%)”.

For CCCc1ccc(S(=O)(=O)Nc2ccc(S(=O)(=O)N(C)C3CCCCC3)cc2)cc1 [Compound A-79, N-cyclohexyl-N-methyl-4-((4-propylphenyl)sulfonamido) benzenesulfonamide], the Inhibition (apyrase) was “A (A is inhibition above 30%)”.

In the case of CCCc1ccc(S(=O)(=O)Nc2ccc(N3CCCS3(=O)=O)cc2)cc1 [Compound A-30, N-(4-(1,1-dioxidoisothiazolidin-2-yl)phenyl)-4-propylbenzenesulfonamide], the Inhibition (apyrase) is reported as “C (C is inhibition from 10% to 20%)”.

In the case of CCCc1ccc(S(=O)(=O)Nc2ccc(C)cc2Cl)cc1 [Compound A-82, N-(2-chloro-4-methylphenyl)-4-propylbenzenesulfonamide], the Inhibition (apyrase) is reported as “C (C is inhibition from 10% to 20%)”.

O=S(=O)(NCc1ccc2c(c1)OCO2)c1ccc(-c2ccccc2)cc1 [Compound A-36, N-(benzo[d][1,3]dioxol-5-ylmethyl)-[1,1′-biphenyl]-4-sulfonamide] was tested, and the Inhibition (apyrase) was “A (A is inhibition above 30%)”.

In the case of CCCCc1ccc(NS(=O)(=O)c2ccc(CCC)cc2)cc1 [Compound A-83, N-(4-butylphenyl)-4-propylbenzenesulfonamide], the Inhibition (apyrase) is reported as “B (B is inhibition from 20% to 30%)”.

With CCCc1ccc(S(=O)(=O)Nc2ccccc2-n2cnnn2)cc1 [Compound A-109, N-(2-(1H-tetrazol-1-yl)phenyl)-4-propylbenzenesulfonamide] the Inhibition (apyrase) was “C (C is inhibition from 10% to 20%)”.

In the case of Cc1cccc(NS(=O)(=O)c2ccc(S(=O)(=O)N3CCCC3)cc2)c1 [Compound A-60, 4-(pyrrolidin-1-ylsulfonyl)-N-(m-tolyl)benzenesulfonamide], the Inhibition (apyrase) is reported as “D (D is inhibition of 0% to 10%)”.
